Test results: publication PMC5120310, “In Silico Exploration for Novel Type-I Inhibitors of Tie-2/TEK: The Performance of Different Selection Strategy in Selecting Virtual Screening Candidates” (Scientific Reports, 2016)
Read-outs that look alike come from different tables or passages of the source.

Target: T1, recombinant human Tie-2 protein (Homo sapiens, UniProt Q02763)
T1 construct: purchased Thermo Fisher Scientific Inc. PV3628
Assay: Z′-Lyte FRET enzymatic activity assay of Tie-2 kinase
Type: biochemical
Details: for Inhibition (%) @10 μg/ml / inhibition at 10 µg/mL: 10 μg/mL preliminary screening, Table S1; for inhibition at 5 µg/mL: 5 μg/mL, n ≥ 2, read-out: Kinase Inhibition (%) at 5 μg/mL (± SD)

[1] = Z′-Lyte assay, 100 μM ATP, n ≥ 2 per concentration, read-out: IC50 (half-maximal inhibitory concentration), Tie-2 kinase
[2] = in the dose-response figure, read-out: IC50 (dose-dependent inhibitory effect), Tie-2 kinase (converted)

T1 sequence (Q02763 23-1124): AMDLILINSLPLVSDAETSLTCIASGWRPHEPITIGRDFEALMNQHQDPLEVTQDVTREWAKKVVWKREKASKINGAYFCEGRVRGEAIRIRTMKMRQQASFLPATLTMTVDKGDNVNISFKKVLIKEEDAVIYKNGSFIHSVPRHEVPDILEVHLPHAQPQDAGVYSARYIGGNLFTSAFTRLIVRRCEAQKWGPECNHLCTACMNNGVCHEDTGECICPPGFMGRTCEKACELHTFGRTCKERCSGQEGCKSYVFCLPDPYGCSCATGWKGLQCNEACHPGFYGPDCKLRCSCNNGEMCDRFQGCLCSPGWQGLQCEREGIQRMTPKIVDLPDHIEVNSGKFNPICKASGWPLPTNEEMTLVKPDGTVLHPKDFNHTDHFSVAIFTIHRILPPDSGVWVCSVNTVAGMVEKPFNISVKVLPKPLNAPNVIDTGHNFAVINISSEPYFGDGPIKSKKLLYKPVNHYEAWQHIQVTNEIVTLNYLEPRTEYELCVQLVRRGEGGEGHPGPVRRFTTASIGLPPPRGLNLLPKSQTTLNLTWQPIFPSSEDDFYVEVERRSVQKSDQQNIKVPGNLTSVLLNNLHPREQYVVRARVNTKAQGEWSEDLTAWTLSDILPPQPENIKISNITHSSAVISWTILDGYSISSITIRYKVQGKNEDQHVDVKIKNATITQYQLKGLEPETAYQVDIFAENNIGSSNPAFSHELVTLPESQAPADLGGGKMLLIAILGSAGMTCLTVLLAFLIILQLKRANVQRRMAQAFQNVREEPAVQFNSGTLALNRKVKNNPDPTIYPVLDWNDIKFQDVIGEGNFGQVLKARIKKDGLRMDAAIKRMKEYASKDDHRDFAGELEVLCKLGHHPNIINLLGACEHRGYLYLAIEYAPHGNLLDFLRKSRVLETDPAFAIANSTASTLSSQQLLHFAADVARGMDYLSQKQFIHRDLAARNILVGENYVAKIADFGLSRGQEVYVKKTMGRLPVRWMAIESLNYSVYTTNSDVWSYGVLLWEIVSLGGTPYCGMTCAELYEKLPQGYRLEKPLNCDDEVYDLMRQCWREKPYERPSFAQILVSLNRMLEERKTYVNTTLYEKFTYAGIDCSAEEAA
Method: In order to assess the biological inhibitory activity of the VS compounds, Z’-Lyte enzymatic activity assay based on FRET (Fluorescence Resonance Energy Transfer) technology was developed as described above. […] At first, all the compounds obtained from both filtering strategies were preliminary screened for their ability to inhibit Tie-2 kinase activity at the concentration of 10 μg/mL.
The Tie-2 kinase inhibitor (CAS#: 948557-43-5, purity ≥ 97%) was purchased from Merck Calbiochem (Darmstadt, Germany) and used as a positive control inhibitor in bioassays[40]. […] All the purchased screening compounds were firstly dissolved in dimethyl sulfoxide (DMSO) at a stock concentration of 5 mg/ml. The final working concentration of DMSO is less than 1%.
Compounds were tested for their ability to inhibit Tie-2 kinase activity using Z′-Lyte® kinase assay kit (ser/thr 5 peptide) with NUNC 384-well plate. In the first step, the test compounds and ATP solution were firstly prepared at 4 × desired concentration. The mixture of recombinant human Tie-2 protein and non-phosphorylated peptide at 2 × desired concentration was prepared in kinase reaction buffer A consisting of 50 mM HEPES (pH 7.5), 0.01% BRIJ-35, 10 mM MgCl2, 4 mM MnCl2, 1 mM EGTA and 2 mM DTT. Reactions were then carried out in a solution containing 2.5 μL test compounds, 5 μL Tie-2/Tyr 05 peptide mixture (10 ng Tie-2 and 2 μM Tyr 05 peptide) and 2.5 μL ATP (100 μM). Then, the assay plate was shaken for 30 seconds on a plate shaker, and incubated for 1 hour at room temperature (20~25 °C). After sufficient kinase reactions, 5 μL development reagent A was added to each well, and the plate was incubated for another hour. Finally, 5 μL stop reagent was added to terminate the reactions, and the coumarin and fluorescein emission signals (excitation: 400 nm; emission: 445 and 520 nm, respectively) were measured on a fluorescence plate reader (BioTek Synergy 4).

Inhibition (%) @10 μg/ml [%]	IC50 [1] [µM]	Structure (SMILES)	also measured
95.39±0.98	4.69 ± 0.37	CC1=C(C(=O)Nc2ccc(C)cc2C)C(c2ccc(OCc3ccccc3)cc2)NC(=S)N1 (racemic) [TP-C2-40]	
87.61±5.43	15.1 ± 0.92	COc1cc(NC(=S)NC(=O)c2ccccc2OC)ccc1NC(=O)c1cc2ccccc2o1 [TP-C2-11]	
58.96±3.25		CC1=C(C(=O)Nc2ccc(C)cc2C)C(c2ccc(O)cc2)NC(=S)N1 (stereo not drawn) [TP-C1-21]	
3.87±1.8		CCOc1ccc(NC(=O)C(C)Sc2nc3ccccc3c(=O)n2-c2cccc(C)c2)cc1 (racemic) [TP-C1-36]	
6.95±6.26		CC(=O)Oc1ccccc1NC(=O)c1ccc2c(c1)C(=O)N(CC1CCCO1)C2=O (stereo not drawn) [TP-C1-34]	
75.1±0.83		CC(=O)Nc1cccc(NC(=O)c2cc(-c3ccncc3)nc3ccc(Br)cc23)c1 [TP-C2-39]	
	36.7	CCCOc1ccc(C(=O)NC(=S)Nc2ccc(NC(=O)c3ccc(C(C)(C)C)cc3)cc2)cc1 [TP-C3-52]	inhibition at 5 µg/mL: 7.88 ± 0.59%
-113.04±17.27		CN(CCc1ccccn1)S(=O)(=O)c1ccc2c3c(cccc13)C(=O)N2 [TP-C2-25]	
83.65±2.57	13.8 ± 1.02	CCCOc1ccc(N2C(=O)CC(N(CCc3ccc(OC)cc3)C(=O)c3cccc(F)c3)C2=O)cc1 (stereo not drawn) [TP-C2-5]	
12.5±2.86		O=C(CN(c1ccc2c(c1)OCCO2)S(=O)(=O)c1ccccc1)Nc1cccnc1 [TP-C1-38]	
25.51±1.18	36.1 ± 1.33	O=C(OCc1ccccc1)c1cn(-c2ccccc2)nc1-c1ccncc1 [TP-C1-37]	
81.26±3.96	2.05 ± 0.11	Cc1cc(NC(=S)NC(=O)c2ccc3c(c2)OCO3)ccc1NC(=O)c1ccccc1 [TP-C2-30]	
	3.47	CCc1ccc(C(=O)NC(=S)Nc2ccc(NC(=O)c3ccc(Cl)cc3Cl)cc2)cc1 [TP-C3-55]	inhibition at 5 µg/mL: 60.22 ± 0.55%
4.93±5.56		O=C(CN(Cc1ccc(F)cc1)S(=O)(=O)c1ccc(Cl)cc1)NCc1ccccn1 [TP-C1-27]	
66.32±3.22		COc1ccc(C2C(C(=O)c3cccs3)=C(O)C(=O)N2CCN(C)C)cc1OC (racemic) [TP-C2-17]	
55.28±4.04		COc1cc2c(cc1OC)C(c1ccc(OCc3ccccc3)cc1)CC(=O)N2 (racemic) [TP-C2-27]	
32.86±3.03		Cc1c(C)n(Cc2ccccc2)c2ccc(C(=O)NNC(=S)NCC3CCCO3)cc12 (stereo not drawn) [TP-C1-41]	
	48.6	Cc1cc(NC(=S)NC(=O)c2ccc(C)c([N+](=O)[O-])c2)ccc1NC(=O)c1ccccc1 [TP-C3-26]	inhibition at 5 µg/mL: 23.11 ± 0.13%
	22.7	CCCOc1cccc(C(=O)NC(=S)Nc2ccc(NC(=O)c3ccccc3)cc2)c1 [TP-C3-14]	inhibition at 5 µg/mL: 43 ± 1.08%
60.19±2.33		O=C(Nc1ccccn1)c1cc(-c2ccncc2)nc2ccccc12 [TP-C2-54]	
	5.15 ± 0.4	CC(=O)Nc1c(O)nc(SCC(=O)Nc2ccc(C(C)=O)cc2)[nH]c1=O [TP-C1-47]	inhibition at 10 µg/mL: 81.9 ± 1.73%; IC50 [2]: 5.15 µM
85.54±0.14	14.6 ± 1.21	Cc1ccc2nc(-c3ccc(NC(=S)NC(=O)c4oc5ccccc5c4C)cc3)oc2c1 [TP-C2-12]	
	1.64	CCc1ccc(C(=O)NC(=S)Nc2ccc(NC(=O)c3cccc(Cl)c3)cc2)cc1 [TP-C3-43]	inhibition at 5 µg/mL: 77.74 ± 0.42%

Inhibition (%) @10 μg/ml [%]	IC50 [1] [µM]	Structure (SMILES)	also measured
9.52±4.54		CCOC(=O)CNS(=O)(=O)c1cc(-c2nnc(Nc3cccc(C)c3)c3ccccc23)ccc1C [TP-C1-16]	
44.25±1.05		Cc1cccc(-n2c(CCN3C(=O)c4ccccc4C3=O)nc3ccccc3c2=O)c1 [TP-C1-10]	
39.83±5.94		O=C(NCCc1cccc2ccccc12)C1CCCN1S(=O)(=O)c1ccc2ccccc2c1 (stereo not drawn) [TP-C1-29]	
54.56±1.99		COc1ccccc1C(=O)Nc1ccc(Oc2ccc3c(c2)C(=O)NC3=O)cc1 [TP-C1-51]	
37.56±1.85		COc1cc(C=NN=C2SC(CC(=O)O)C(=O)N2c2ccc(O)cc2)ccc1O (stereo not drawn) [TP-C1-11]	
-27.08±4.67		Cc1cc(C(=O)c2ccccc2)ccc1OC(=O)CN1C(=O)c2ccccc2C1=O [TP-C1-42]	
61.48±4.57		O=C(c1cc(-c2ccncc2)nc2ccc(Cl)cc12)N1CCN(C(=O)C2CCCO2)CC1 (stereo not drawn) [TP-C2-36]	
47.13±8.4		COc1ccc(C(CC(=O)c2ccccc2)CC(=O)c2ccccc2)cc1OC [TP-C2-23]	
-0.66±5.93		CCc1ccc2oc(-c3ccc(NC(=S)NC(=O)c4cc5ccccc5o4)cc3)nc2c1 [TP-C1-15]	
46.26±3.21		O=C(NC(=S)Nc1ccc(-c2nc3ccccc3o2)c(O)c1)c1cccc(Br)c1 [TP-C2-10]	
	15.3 ± 0.68	O=C1c2ccccc2C(=O)N1CCc1nn2c(-c3cccnc3)nnc2s1 [TP-C1-52]	inhibition at 10 µg/mL: 101 ± 2.04%; fold decreased activity compared to TP-C1-17 and TP-C1-47 (from IC50 values): ~ 3 fold; IC50 [2]: 15.3 µM
	3.31 ± 0.23	COC(=O)c1ccc(C)c(NC(=O)c2cc(-c3ccccn3)nc3ccc(Br)cc23)c1 [TP-C2-33]	inhibition at 10 µg/mL: 95.2 ± 1.81%; IC50 [2]: 3.32 µM
51.93±0.22		COc1ccc(-c2cc3ccccc3oc2=O)cc1NC(=O)c1cccnc1 [TP-C2-31]	
	2.74	COc1cc(NC(=S)NC(=O)c2ccc(C)cc2C)ccc1NC(=O)c1ccccc1Cl [TP-C3-21]	inhibition at 5 µg/mL: 71.19 ± 0.29%
49.69±0.95		CCOc1ccc(CN(CCc2ccc3c(c2)OCO3)Cc2ccc(C(F)(F)F)cc2)cc1 [TP-C2-6]	
72.64±14.95		O=C(Nc1ccc(NC(=S)NC(=O)c2cccc3ccccc23)cc1)c1cccs1 [TP-C2-15]	
90.2±6.92	8.44 ± 0.93	CC(=O)c1c(C)cc(C)c(CSc2ccccn2)c1C [TP-C2-22]	
90.36±1.3	6.12 ± 0.81	NC(=O)c1ccccc1NC(=O)CSc1nc(O)c(-c2ccccc2)c(=O)[nH]1 [TP-C2-41]	
67.14±5.68		Cc1ccccc1C(=O)NC(=S)Nc1ccc(NC(=O)c2cc3ccccc3o2)cc1 [TP-C2-47]	
61.04±3.33		c1ccc(-c2nnc3n2N=C(c2c[nH]c4ccccc24)CS3)cc1 [TP-C1-50]	
56.84±0.18		N#Cc1cc2c([nH]c1=O)CC(c1ccccc1)CC2=NNc1ccccc1 (stereo not drawn) [TP-C1-2]	
	13.8	COc1ccc(C(=O)NC(=S)Nc2ccc(NC(=O)c3ccccc3)cc2)cc1[N+](=O)[O-] [TP-C3-15]	inhibition at 5 µg/mL: 35.1 ± 0.63%; fold decline in activity compared to TP-C2-9 (from IC50 values): ~ 10 fold
56.11±13.15		CCN1C(=O)NC(c2ccc(Cl)cc2)C(C(=O)OCCc2ccccc2)=C1C (racemic) [TP-C2-3]	

Inhibition (%) @10 μg/ml [%]	IC50 [1] [µM]	Structure (SMILES)	also measured
7.19±0.3		COCCCN1C(=O)C(O)=C(C(=O)c2ccc(Cl)cc2)C1c1ccc(O)cc1 (stereo not drawn) [TP-C1-26]	
9.84±11.04		O=C(NCCNC(=O)c1cc2ccccc2cc1O)c1cc2ccccc2cc1O [TP-C1-7]	
77.43±0.89		Cc1cc(S(=O)(=O)Nc2ccc(F)cc2)ccc1OCC(=O)NCc1cccnc1 [TP-C2-53]	
16.08±16.2		O=C(NN=Cc1ccc(N2N=C(c3ccccc3)CC2c2ccccc2)cc1)c1ccncc1 (racemic) [TP-C1-6]	Tie-2 inhibitory activity in words (active / inactive) (VS candidates of Strategy 1, preliminary screening at 10 μg/mL): inactive
10.67±4.7		CCOc1cc(-c2nc3sc4c(c3c(=O)[nH]2)CCCC4)ccc1OCc1ccccc1F [TP-C1-14]	
80.89±0.31	10.8 ± 0.83	Cc1ccc2nc(-c3ccccn3)cc(C(=O)NC3CCCc4ccccc43)c2c1 (stereo not drawn) [TP-C2-37]	
-0.28±1.12		Cc1ccccc1-c1nc(S(=O)(=O)c2ccc(Cl)cc2)c(NCc2cccnc2)o1 [TP-C1-43]	
77.63±0.16		CN1C(=O)c2ccc(C(=O)NCc3ccccn3)cc2C1=O [TP-C2-51]	
	2.82	Cc1cccc(C(=O)Nc2ccc(NC(=S)NC(=O)c3ccccc3)cc2)c1 [TP-C3-3]	inhibition at 5 µg/mL: 67.3 ± 0.78%
71.3±0.7	43.6 ± 2.32	O=C(CSc1nnc(-c2cccnc2)n1-c1ccccc1)c1ccc(F)cc1 [TP-C1-28]	
	1.73 ± 0.17	O=C(NC(=S)Nc1cccc2c(O)cccc12)c1ccc(-c2ccccc2)cc1 [TP-C2-50]	inhibition at 10 µg/mL: 97.8 ± 1.13%; IC50 [2]: 1.73 µM
2.81±1.73		O=c1[nH]c(-c2ccc(OCc3ccccc3F)cc2)nc2ccccc12 [TP-C1-40]	
	19.8	COc1ccc(Cl)cc1C(=O)NC(=S)Nc1ccc(NC(=O)c2ccccc2)c(C)c1 [TP-C3-27]	inhibition at 5 µg/mL: 47.9 ± 0.05%
48.48±7.49		O=c1[nH]nc(CCc2n[nH]c(=O)c3ccccc23)c2ccccc12 [TP-C2-1]	
56.09±2.14		Fc1ccc(C2CC(c3cccs3)=NN2C(=S)NCCc2ccccc2)cc1 (racemic) [TP-C1-39]	
81.27±3.01	8.21 ± 0.46	O=C(Nc1ccccc1C(=O)NCc1cccnc1)c1cccc(F)c1 [TP-C2-55]	
25.58±3.23		COc1cc(-c2nc3ccccn3c2N=Cc2c[nH]nc2-c2ccccc2)ccc1O [TP-C1-5]	
37.64±1.82		CCOC(=O)c1ccc(NC(=O)CN2C(=O)c3ccccc3C2=O)cc1 [TP-C1-3]	
-280.42±23.11		O=C(O)CC1SC(=NN=Cc2ccc(OC(=O)c3cccc4ccccc34)cc2)NC1=O (racemic) [TP-C2-19]	
69.77±2.75		CCOc1cc(C2C(C(=O)OCCc3ccccc3)=C(C)NC3=C2C(=O)CCC3)ccc1O (stereo not drawn) [TP-C2-4]	
87.59±3.7	4.59 ± 0.29	O=C(NCc1ccco1)c1cc(-c2ccccn2)nc2ccc(Cl)cc12 [TP-C2-35]	
	4.45 ± 0.36	CCOc1ccc2c(c1)-c1c(ssc1=S)C(C)(C)N2C(=O)CSc1nc(C)cc(O)n1 [TP-C1-17]	inhibition at 10 µg/mL: 89.5 ± 2.93%; IC50 [2]: 4.45 µM
